Assays:
A549 = experiment: Resazurin reduction cell viability assay, A549; assay type: cell-based, human; details: 72 h of treatment; mean ± sd
Procedure: (§1) The compounds under investigation were tested on a panel of commercial human cancer cell lines: ovarian endometrioid adenocarcinoma A2780 (ICLC HTL98008), its cisplatin-resistant variant A2780cisR (ECACC 93112517), colon carcinoma HCT 116 (ECACC 91091005), breast invasive ductal carcinoma MCF7 (ECACC 86012803), embryonal carcinoma NTERA-2 clone D1 (also known as NT2/D1, ICLC HTL97025), and lung adenocarcinoma A549 (ICLC HTL03001). Furthermore, a cell line derived from the pleural effusion of a patient with untreated malignant pleural mesothelioma (MPM) was added to the panel, namely, MM98 (sarcomatoid phenotype). Commercial cells were purchased from the European Collection of Authenticated Cell Cultures (ECACC, UK) or the Interlab Cell Line Collection (ICLC, Genoa, Italy), while the MM98 cell line was obtained from the Pathology Unit of the National Hospital of Alessandria (Italy).
(§2) The following media were used to grow the cells: RPMI 1640 (for A2780, A2780cisR, NT2/D1, and A549 cells), DMEM (for MCF7 cells), DMEM supplemented with nonessential amino acids (for MM98 cells), and McCoy's 5A (for HCT 116 cells). All media contained L-glutamine (2 mM) and were added with penicillin (100 IU·mL^−1), streptomycin (100 mg·L^−1), and 10% heat inactivated FBS. To maintain resistance in A2780cisR cells, cisplatin (1 μM) was added to the medium every two passages.
(§3) Continuous treatments (CT) were carried out at 37°C in a humidified chamber with 5% CO2. Cisplatin was dissolved in a 0.9% w/v NaCl aqueous solution and brought to pH = 3 with HCl (final stock concentration 1 mM). The Pt(IV) Complexes 1–3 were dissolved in milliQ water (final stock concentration 5 mM) and stored at −20°C. The stock concentration was confirmed with inductively coupled plasma-mass spectrometry (ICP-MS) measurements. The mother solutions were diluted in a complete medium to the required concentration.
(§4) To assess the growth inhibition of the compounds under investigation, a cell viability test (i.e., the resazurin reduction assay) was used. […] At the end of the treatment (72 h), viability was evaluated with 100 μg·mL^−1 resazurin (Acros Chemicals, France) in a fresh medium for 1 h at 37°C, and the amount of the reduced product, resorufin, was measured by fluorescence (excitation λ = 535 nm, emission λ = 595 nm) with a Tecan Infinite F200Pro plate reader (Tecan, Austria). In each experiment, cells were challenged with drug candidates at different concentrations, and the final data were calculated from at least three replicates of the same experiment performed in triplicate. The fluorescence of 8 wells containing a medium without cells was used as a blank. Fluorescence data were normalized to 100% cell viability for nontreated cells. […]

MM98 = experiment: Resazurin reduction cell viability assay, MM98; assay type: cell-based, human; details: 72 h of treatment; mean ± sd
Procedure: as §1, §2, §3, §4

A2780 cells = experiment: Cellular Pt accumulation in A2780 cells in the presence of uptake inhibitors; assay type: cell-based, human; details: A2780, 1 h, 10 μM; for effect of NaN3/2DG pretreatment on cell accumulation (AR): NaN3 and 2DG both 25 mM
Procedure: A2780 and A2780cisR cells were seeded in 10 mm Petri dishes and challenged with complexes under investigation (10 μM) in a complete medium for 4 h. At the end of the exposure, cells were washed three times with PBS, detached from Petri dishes using 0.05% trypsin 1x + 2% EDTA (HyClone, Thermo Fisher), and harvested in a completely fresh medium. An automatic cell counting device (Countess®, Life Technologies) was used to measure the number and mean diameter of each cell necessary to calculate the mean cellular (spherical) volume.
For the analysis of Pt accumulation, cells were transferred to a borosilicate glass tube and centrifuged at 1100 rpm for 5 min at room temperature. The supernatant was carefully removed by aspiration, while approximately, 200 μL of the supernatant was left to limit cell loss. Cellular pellets were stored at −80°C until mineralization.
The determination of the platinum content was performed by ICP-MS (Thermo Optek X Series 2). Mineralization was carried out by adding 70% w/w HNO3 to each sample (after defrosting), followed by incubation for 1 h at 60°C in an ultrasonic bath. Before the ICP-MS measurement, HNO3 was diluted to a final concentration of 1%. The instrument settings were optimized to produce the highest platinum sensitivity, and the most abundant isotopes of Pt and In (used as an internal standard) were quantified at m/z 195 and 115, respectively.
The quantity of Pt found in cells and normalized on cell number (cellular Pt accumulation) was expressed as ng of Pt per 10^6 cells. The mean cellular volume, calculated from the actual mean cell diameter measured for each sample (about 12 μm), was used to obtain the volume of 10^6 cells and, finally, the intracellular Pt concentration. At treatment time zero, 100 μL of the medium was taken from each sample to verify the extracellular Pt concentration. The ratio between intracellular and the actual extracellular concentrations is defined as the accumulation ratio, AR [70]. The Pt content in the control experiment, which characterizes any possible Pt contamination during the overall process, was statistically insignificant with respect to the cellular Pt accumulated during treatment, even in the case of A2780cisR.
Experiments with the inhibitors were carried out at 37°C as follows: (i) NaN3 + 2-deoxy-D-glucose (2DG): preincubation for 30 min in PBS with 25 mM NaN3 and 25 mM 2DG, followed by a 10 μM CT with the Pt compounds in Earle's Balanced Salt Solution (EBSS) for 1 h; (ii) cimetidine (CMT): coincubation with 1.5 mM CMT and 10 μM Pt compounds in EBSS for 1 h; (iii) 1-methyl-4-phenylpyridin-1-ium (MPP^+): coincubation with 2.0 mM MPP^+ and 10 μM Pt compounds in EBSS for 1 h; (iv) cytochalasin D (CTD): preincubation for 30 min in EBSS with 10 μM CTD, followed by a 10 μM CT with the Pt compounds in EBSS for 1 h; (v) O-benzylserine (BS): coincubation with 1.0 mM BS and 10 μM Pt compounds in EBSS for 4 h; (vi) ouabain (OUA): preincubation for 1 h in EBSS with 1 mM OUA, followed by a 10 μM CT with the Pt compounds in EBSS for 4 h; (vii) tetraethylammonium chloride (TEA): […] in EBSS for 4 h. In the experiments at low temperature, A2780 cells were preincubated for 2 h at 4°C, followed by CT with each Pt compound (10 μM) for 4 h. In all cases, at the end of the CT, the cells were manipulated as described in the previous paragraphs.

[1] = set-up: method as in PMID 32296997; details: 37°C, ten-fold excess of ascorbic acid; cited from earlier work

| SMILES | IC50 (A549) [µM] | IC50 (MM98) [µM] | effect of OCT inhibitors (TEA, MPP+, CMT) on AR (A2780 cells) | effect of NaN3/2DG pretreatment on cell accumulation (AR) (A2780 cells) | t ½ [1] [min] | effect of O-benzylserine (BS) on cellular accumulation (A2780 cells; BS cotreatment 1 mM) | effect of cimetidine (CMT) on cell accumulation (A2780 cells; CMT cotreatment 1.5 mM) | effect of cytochalasin D (CTD) on Pt accumulation (A2780 cells; CTD pretreatment 10 μM) | effect of MPP+ on cell accumulation (A2780 cells; MPP+ cotreatment 2 mM) | effect of ouabain (OUA) on cellular accumulation (A2780 cells; OUA pretreatment 1 mM) | effect of tetraethylammonium (TEA) on uptake (A2780 cells; TEA pretreatment 20 mg·mL^−1) |
| --- | --- | --- | --- | --- | --- | --- | --- | --- | --- | --- | --- |
| N.N.[Cl][Pt][Cl] [Cisplatin, (SP-4-2)-diamminedichloridoplatinum(II)] | 3.8 ± 0.7 | 3.2 ± 1.02 |  |  |  |  |  |  |  |  |  |
| N.N.[OH][Pt]([OH])([Cl])[Cl] [Complex 1, (OC-6-33)-diamminedichloridodihydroxidoplatinum(IV)] | 48.2 ± 27.7 | > 100 | not significantly affected | without appreciably affecting | 8.6 |  |  |  |  |  |  |
| CC(=O)[O][Pt]([OH])([Cl])[Cl].N.N [Complex 2, (OC-6-44)-acetatodiamminedichloridohydroxidoplatinum(IV)] | 3.11 ± 0.74 | 3.67 ± 1.32 |  | statistically reduced | 20.5 | did not cause a significant effect | inhibited | did not cause any decrease | inhibited | did not cause a significant effect | evident (albeit statistically not significant) decrease |
| CC(=O)[O][Pt]([NH2])([NH2])([Cl])([Cl])[O]C(C)=O [Complex 3, (OC-6-33)-diamminedichloridodiacetatoplatinum(IV)] | 78 ± 17.7 | > 100 | not significantly affected | without appreciably affecting | 528 |  |  |  |  |  |  |
